Laboratory results reported in ChEMBL document CHEMBL1201862, “PubChem BioAssay data set” (2004).
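Grown in 96-well plates, cells were treated for 48 hours with each compound at five concentrations. Insufficient inhibition: endpoint recorded as highest concentration tested. GI50 marks 50% less growth.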 Active and inactive are the calls of the source. Rule as the data show it: active = GI50 up to about 1.1 µM and inactive = higher.

Tests used:
Assay in all cases: NCI tumour cell line growth inhibition, 48 h
CCRF-CEM = system: CCRF-CEM
COLO 205 = system: COLO 205
HOP-62 = system: HOP-62
HOP-92 = system: HOP-92
HT-29 = system: HT-29
K562 = system: K562
KM12 = system: KM12
MOLT-4 = system: MOLT-4
Malme-3M = system: Malme-3M
NCI-H226 = system: NCI-H226
NCI-H23 = system: NCI-H23
OVCAR-5 = system: OVCAR-5
RXF 393 = system: RXF 393
SF-539 = system: SF-539
SK-MEL-28 = system: SK-MEL-28
SN12C = system: SN12C
SW-620 = system: SW-620
U-251 = system: U-251
UACC-62 = system: UACC-62
UO-31 = system: UO-31

Measured: GI50

CCC(=C(C#N)C#N)c1cc(OC)c(OC)c(OC)c1
inactive: CCRF-CEM > 100 µM | COLO 205 > 100 µM | HOP-62 > 100 µM | HOP-92 95.1 µM | HT-29 > 100 µM | K562 > 100 µM | KM12 > 100 µM | MOLT-4 > 100 µM | Malme-3M > 100 µM | NCI-H226 > 100 µM | NCI-H23 > 100 µM | OVCAR-5 > 100 µM | RXF 393 > 100 µM | SF-539 > 100 µM | SK-MEL-28 > 100 µM | SN12C > 100 µM | SW-620 > 100 µM | U-251 > 100 µM | UACC-62 > 100 µM | UO-31 > 100 µM

COc1cc2c(cc1OC)C(C(c1ccccc1)c1ccccc1)N(C)CC2 (stereo not given)
inactive: CCRF-CEM 64.7 µM | COLO 205 16.1 µM | HOP-62 > 100 µM | HOP-92 29.2 µM | HT-29 35.1 µM | K562 40.8 µM | KM12 > 100 µM | MOLT-4 38.3 µM | Malme-3M 23.8 µM | NCI-H226 > 92.9 µM | NCI-H23 > 100 µM | OVCAR-5 > 100 µM | RXF 393 20 µM | SF-539 > 100 µM | SK-MEL-28 > 79.3 µM | SN12C > 100 µM | SW-620 > 100 µM | U-251 61.9 µM | UACC-62 > 86.7 µM | UO-31 > 63.7 µM

CCOC(=O)c1c(C)c2c(n1C)CCc1c[nH]nc1-2
inactive: CCRF-CEM > 100 µM | COLO 205 > 100 µM | HOP-62 > 100 µM | HOP-92 > 100 µM | HT-29 > 100 µM | K562 > 100 µM | KM12 > 100 µM | MOLT-4 > 100 µM | Malme-3M > 100 µM | NCI-H226 > 100 µM | NCI-H23 > 100 µM | OVCAR-5 99.1 µM | RXF 393 > 100 µM | SF-539 > 100 µM | SK-MEL-28 > 100 µM | SN12C > 100 µM | SW-620 > 100 µM | U-251 > 100 µM | UACC-62 > 100 µM | UO-31 > 100 µM
